≈ marks a conversion by molar mass, not a printed value. Where two headings read alike, the source gives them in different places.
Experiments:
[1] = test system: A375 cells; test: Cytotoxicity assay, cell proliferation (Alamar Blue); format: cell-based; settings: Homo sapiens, A-375, 72 h
Protocol: (§1) Media Preparation Protocol:— • Media composition for cell preservation (4 ml): 900 μl of Hi-FBS+[…] of DMSO Complete Media Preparation (500 ml): For DLD1n& A375:
(§2) Cell Culture Protocol:— 1) Protocol for Reviving Cell Line(s) • 1. Take out the cell vials from LN2 container & thaw immediately at 37° C. • 2. Wipe it with 70% alcohol properly • 3. Transfer to sterile centrifuge tubes containing 9 ml media & spin at 1000 rpm for 5 min. • 4. Discard the supernatant & resuspend the pellet in 2-3 ml media and transfer to T-75 or T-150 culture flasks containing 15 or 30 ml media respectively. • 5. Incubate at 37° C.-5% CO2. 2) Protocol for Sub-Culturing Cell Line(s)
(§3) Cells should be sub-cultured when they reach 70-80% confluence. • 1. Discard the media from cell culture flask. • 2. Add 3 to 4 ml of TrypLE Express dissociation solution; keep in CO2 incubator for ˜5 min. Mix gently to avoid cell clumping. • 3. Add 4.0 to 5.0 ml of complete growth medium and mix gently & transfer to centrifuge tube. • 4. Centrifuge at 1000 rpm for 5 min. • 5. Discard the supernatant & re-suspend the pellet in 3-4 ml of media. • 6. Count the cells in cell counter or using hemocytometer. • 7. Split the cells in 1:2 or 1:4 ratio into new culture flasks. • 8. Incubate cultures at 37° C.-5% CO2 to get confluence 3) Protocol for Preserving Cell Line(s) • 1. Discard the spent media from the TC flask. • 2. Add 3 to 4 ml of TrypLE Express dissociation solution; keep in CO2 incubator for ˜5 min. Mix gently to avoid cell clumping. • 3. Add 4.0 to 5.0 ml of complete growth medium and mix gently & transfer to centrifuge tube. • 4. Centrifuge at 1000 rpm for 5 min. • 5. Discard the supernatant & re-suspend the pellet in 3-4 ml of media. • 6. Count the cells in cell counter or using hemocytometer. • 7. Spin at 1000 rpm for 5 min, discard the supernatant and re-suspend the pellet in 900 μl of media+100 μl of DMSO (Freeze app. 1.5 to 3 million cells/vial). • 8. Keep the vials in −80° C. overnight & transfer to LN2 container. Cell Proliferation (Alamar Blue) Assay:— • Seed cells at 2000 cells in 100 μL/well in 96-well tissue culture plate. Leave outer wells without cells for background measurements. Incubate at 37° C./5% CO2 for 16-18 hours. • Add 10× concentration compound dilution or DMSO control so that the final concentration is 1× and DMSO concentration 0.5%. Compound is prepared in 3-fold serial dilutions. Incubate for 72 h at 37° C./5% CO2. • Add Alamar Blue™ reagent to each well with multi-channel pipette and tap gently on each side of the plate to mix. Incubate for 3 hours at 37° C./5% CO2. • Read plates on fluorescence reader (Tecan i-control, 1.11.1.0, Device: infinite 200, Serial number: 810001990) at 540 nm excitation, 590 nm emission wavelength. • Data analysis using Graph pad prism Assay Acceptance Criteria • S/N Ratio should be >3. • Z′ should be >0.4

[2] = test system: DLD-1 cells; test: as above; format: cell-based; settings: Homo sapiens, 72 h
Protocol: as §1, §2, §3

[3] = test system: MiaPaCa-2 cells; test: as above; format: cell-based; settings: Homo sapiens, MIA PaCa-2, 72 h
Protocol: as §2, §3

[4] = Blood partitioning (blood to plasma ratio); format: in vitro ADME; settings: fresh pooled whole blood, fresh mouse blood, 37° C., read-out: Mice blood to plasma ratio
Protocol: Blood to plasma ratio defines the concentration of a drug in whole blood (that is, target drug containing both erythrocytes and plasma) to the concentration of target drug in plasma. The red blood cell partition coefficient is the ratio of the concentration of drug in the red blood cells (that is, not including plasma) to concentration of drug in plasma.
Assay Procedure: • 1. Fresh blood was collected. • 2. An aliquot of 50 μL blood was taken from individual tubes and centrifuged to check for any haemolysis. Tube with haemolysed blood was not considered for experiment. • 3. Non-haemolysed blood in individual tubes was pooled and incubated at 37° C. • 4. 999 μL aliquot of pooled blood was taken in individual tubes. One of these tubes was designated for Chloroquine (positive control). Incubations for the test compound were similarly done in other aliquot. • 5. 1 μL of test compound (0.1% DMSO concentration) or positive control solution was spiked into each of the above tubes. • 6. Above tubes were incubated at 37° C. for 30 min. • 7. Post incubation, an aliquot (˜50 μL) was taken and centrifuged to check for haemolysis. • 8. Subsequently, 100 μL of blood sample from the incubation mixture tube was transferred into a separate labeled tube and quenched with 200 μL of Acetonitrile containing Internal standard. • 9. […]

[5] = Kinetic solubility across pH (PBS pH 7.4, FaSSGF pH 1.6, FaSSIF pH 6.5); format: physicochemical; settings: kinetic from dmso stock
Protocol: Kinetic solubility method was used to determine the solubility of NCEs across pH ranges, PBS pH 7.4, FaSSGF pH 1.6 & FaSSIF pH 6.5.
Procedure • 1. Seven calibration standards (i.e. 1, 5, 10, 50, 100, 200 and 300 μM) were prepared in DMSO from the 20 mM primary stock solution. • 2. Dispensed an aliquot of 198 IL of 0.001 M PBS into duplicate wells of a multiscreen solubility filter plate. • 3. Subsequently, added 2 μL of test compound solution (20 mM primary stock solution), cover the plate and shake at 150 rotations per minute for 90 minutes. • 4. At the end of 90 minutes, samples were filtered using MultiScreen HTS vacuum Manifold assembly and the filtrate was collected into the acceptor plate. • 5. An aliquot of 150 μL of filtrate from the above 96-well acceptor plate was transferred into HIPLC vials and analyzed by HIPLC-UV.

[6] = Plasma stability; format: in vitro ADME; settings: 3 μM, 37° C.
Protocol: Stability of drug assessed in plasma to determine the percent remaining and half-life of the compound.
Assay Procedure: • 1. Fresh blood was collected in tubes containing anticoagulant (K2 EDTA) and the plasma collected by centrifugation. • 2. 3 mM of the test compound was prepared in DMSO from 20 mM main stock. • 3. 1 μL of test compound (3 mM) was incubated at 37° C. in 999 μL of plasma (3 μM final concentrations, 0.1% DMSO, final volume 1,000 μL). • 4. The reactions were terminated at 0, 30, 60 and 120 min by addition of two volumes of acetonitrile, containing IS (200 ng/mL) resulting in protein precipitation. • 5. After termination of reaction at individual time points, the samples were stored at −80±10° C. till the completion of experiment. • 6. On completion of last incubation point, all the samples were centrifuge at 14,000 rpm for 10 min. • 7. Supernatant (200 μL) from each reaction tube was taken for LC-MS/MS analysis.

[7] = Buffer stability in phosphate buffered saline; format: physicochemical; settings: PBS pH 7.4, 3 μM, 37° C.
Protocol: Assay Procedure: • 1. Test compound was prepared at 3 mM in DMSO from 10 mM working stock. • 2. The experiment was conducted in Phosphate buffered saline with a final concentration of 3 μM. • 3. The vials were incubated at 37° C. in a hybridization oven for respective time points. • 4. After incubation time, equal volumes of quenching solution was added. • 5. Samples were centrifuged at 14,000 rpm for 5 min at 4° C. • 6. Supernatant was transferred into vials and analyzed in HIPLC.

[8] = average of N1 and N2, read-out: Average pIC50 (n = 2) (converted)
[9] = replicate N1, read-out: IC50 N1
[10] = replicate N1, read-out: pIC50 N1 (converted)
[11] = replicate N2, read-out: IC50 N2
[12] = replicate N2, read-out: pIC50 N2 (converted)

Row | Compound | IC50 [1, 8] | IC50 [1, 9] | IC50 [1, 10] | IC50 [1, 11] | IC50 [1, 12] | IC50 [2, 8] | IC50 [2, 9] | IC50 [2, 10] | IC50 [2, 11] | IC50 [2, 12] | IC50 [3, 8] | IC50 [3, 9] | IC50 [3, 10] | IC50 [3, 11] | IC50 [3, 12] | further results
1 | CCN(CC)CCCC(C)Nc1c2ccc(Cl)cc2nc2ccc(OC)cc12 (stereo not drawn) [Quinacrine] | 2240 nM | 1280 nM | 1290 nM | 3840 nM | 3800 nM | 4370 nM | 2520 nM | 2510 nM | 7540 nM | 7590 nM | 2510 nM | 2680 nM | 2690 nM | 2340 nM | 2340 nM | 
2 | COc1cccc2c1C(=O)c1c(O)c3c(c(O)c1C2=O)C[C@@](O)(C(=O)CO)C[C@@H]3O[C@H]1C[C@H](N)[C@H](O)[C@H](C)O1 [Doxorubicin] | 28.2 nM | 20 nM | 24.5 nM | 30 nM | 31.6 nM | 380 nM | 250 nM | 245 nM | 590 nM | 589 nM | 89.1 nM | 100 nM | 97.7 nM | 80 nM | 81.3 nM | 
3 | COc1ccc2nc3cc(Cl)ccc3c(NCCOCCN(C)CCOCCNc3c4ccc(Cl)cc4nc4ccc(OC)cc34)c2c1 [Dioxo-DQ-551] | 794 nM | 440 nM | 447 nM | 1450 nM | 1450 nM | 708 nM | 330 nM | 324 nM | 1560 nM | 1550 nM | 174 nM | 150 nM | 151 nM | 210 nM | 204 nM | blood plasma ratio at 30 min [4]: 12.6; solubility at 90 min ([5]; aqueous buffer, PBS pH 7.4, 90 minutes shaking, read-out: PBS pH 7.4 solubility): 39 µM (≈ 26.9 µg/mL); solubility at 90 min ([5]; fassgf or other biorelevant, FaSSGF pH 1.6, 90 minutes shaking, read-out: FaSSGF pH 1.6 solubility): ~200 µM (≈ 138 µg/mL); solubility at 90 min ([5]; FaSSIF pH 6.5, 90 minutes shaking, read-out: FaSSIF pH 6.5 solubility): 62 µM (≈ 42.7 µg/mL); Mouse plasma stability (% remaining @ 120 min) [6]: 88%; PBS pH 7.4 stability (% remaining @120 min) [7]: 100%

Source: US12343339B2, “Bisaminoquinolines and bisaminoacridines compounds and methods of their use” (THE TRUSTEES OF THE UNIVERSITY OF PENNSYLVANIA, priority 2019, dated 2025)
